Source: patent US5631247A, “Compounds and compositions with nitrogen-containing non-basic side chains” (Eli Lilly and Company, priority 1996, dated 1997)

What was measured:
eosinophil peroxidase = assay: Uterine eosinophil peroxidase (EPO) assay in ovariectomized rats (four day dosing); format: in vivo, female Sprague Dawley rats; design: Uterine EPO (Vmax): unit not given here; conditions: oral, OVX rats; for Uterine EPO (Vmax): daily for 4 days
Procedure: (§1) In the examples illustrating the methods, a post-menopausal model was used in which effects of different treatments upon various biological parameters were determined, including serum cholesterol concentration, uterine weight, eosinophil peroxidase activity, MCF-7 cell proliferation, and bone density.
(§2) Animals were dosed daily for 4 days. […] A blood sample was collected by cardiac puncture.
(§3) The data presented in Table 1 reflect the response of 5 to 6 rats per treatment.

uterus = assay: Wet uterine weight in ovariectomized rats (four day dosing); format: in vivo, female Sprague Dawley rats; conditions: for change in vivo at 0.1 mg/kg / change in vivo at 1 mg/kg / change in vivo at 10 mg/kg: Rattus norvegicus, po, 96 h, daily for 4 days, increase vs OVX control, read-out: Uterine Weight (% inc. OVX)
Procedure: as §1, §2
(§4) Data presented in Table 1 below show comparative results among control ovariectomized rats, rats treated with EE2, and rats treated with certain compounds of the present invention. […] This uterine response to estrogen is well recognized in the art.
as §3

[1] = system: MCF-7 breast adenocarcinoma cells; assay: MCF-7 proliferation assay (tritiated thymidine); format: cell-based; conditions: Homo sapiens, MCF7, 48 hours with drug, read-out: ED50 (the source's name)
Procedure: MCF-7 breast adenocarcinoma cells (ATCC HTB 22) were maintained in MEM (minimal essential medium, phenol red-free, Sigma, St. Louis, Mo.) supplemented with 10% fetal bovine serum (FBS) (V/V), L-glutamine (2 mM), sodium pyruvate (1 mM), HEPES {(N-[2-hydroxyethyl]piperazine-N'-[2-ethanesulfonic acid]10 mM}, non-essential amino acids and bovine insulin (1 μg/ml) (maintenance medium). Ten days prior to assay, MCF-7 cells were switched to maintenance medium supplemented with 10% dextrancoated charcoal stripped fetal bovine serum (DCC-FBS) assay medium) in place of 10% FBS to deplete internal stores of steroids. MCF-7 cells were removed from maintenance flasks using cell dissociation medium (Ca++/Mg++ free HBSS (phenol red-free) supplemented with 10 mM HEPES and 2 mM EDTA). Cells were washed twice with assay medium and adjusted to 80,000 cells/mi. Approximately […] (8,000 cells) were added to flat-bottom microculture wells (Costar 3596) and incubated at 37° C. in a 5% CO2 humidified incubator for 48 hours to allow for cell adherence and equilibration after transfer. Serial dilutions of drugs or DMSO as a diluent control were prepared in assay medium and […] to triplicate microcultures followed by 50 ml assay medium for a final volume of […]. After an additional 48 hours at 37° C. in a 5% CO2 humidified incubator, microcultures were pulsed with tritiated thymidine (1 uCi/well) for 4 hours. Cultures were terminated by freezing at -70° C. for 24 hours followed by thawing and harvesting of microcultures. Samples were counted by liquid scintillation. Results in Table 3 below show the ED50 for certain compounds of the present invention.

serum cholesterol = assay: Serum cholesterol in ovariectomized rats (post-menopausal rat model, four day dosing); format: in vivo, female Sprague Dawley rats; conditions: OVX rats, oral, 4 days; EE2 at 0.1 mg/Kg/day
Procedure: as §1, §2
Blood samples were allowed to clot at room temperature for 2 hours, and serum was obtained following centrifugation for 10 minutes at 3000 rpm. Serum cholesterol was determined using a Boshringer Mannheim Diagnostics high performance cholesterol assay. Briefly the cholesterol was oxidized to cholest-4-en-3-one and hydrogen peroxide. The hydrogen peroxide was then reacted with phenol and 4-aminophenazone in the presence of peroxidase to produce a p-quinone imine dye, which was read spectrophotemetrically at 500 nm. Cholesterol concentration was then calculated against a standard curve. The entire assay was automated using a Biomek Automated Workstation.
as §4, §3

tibia = assay: Bone density assay (35 day dosing, tibia, single photon absorptiometry); format: in vivo, female Sprague Dawley rats; conditions: OVX rats, oral in 20% hydroxypropyl β-cyclodextrin, daily for 35 days
Procedure: Following the General Preparation procedure described above, the rats were treated daily for 35 days (6 rats per treatment group) and sacrificed by decapitation on the 36th day. The 35 day time period was sufficient to allow maximal effect on bone density, measured as described herein. At the time of sacrifice, the uteri were removed, dissected free of extraneous tissue, and the fluid contents were expelled before determination of wet weight in order to confirm estrogen deficiency associated with complete ovariectomy. […] The uteri were then placed in 10% neutral buffered formalin to allow for subsequent histological analysis. The right tibias were excised and scanned at the distal metaphysis 1 mm from the patellar groove with single photon absorptiometry. Results of the densitometer measurements represent a calculation of bone density as a function of the bone mineral content and bone width. In accordance with the procedures outlined above, compounds of the present invention and EE2 in 20% hydroxypropyl β-cyclodextrin were orally administered to test animals.

| Structure (SMILES) | IC50 [1] [nM] | Uterine EPO (Vmax) (eosinophil peroxidase; 0.1 mg/kg) | Uterine EPO (Vmax) (eosinophil peroxidase; 1 mg/kg) | change in vivo at 0.1 mg/kg (uterus) [%] | change in vivo at 1 mg/kg (uterus) [%] | change in vivo at 10 mg/kg (uterus) [%] | Uterine EPO (Vmax) (eosinophil peroxidase; 10 mg/kg) | effect on serum cholesterol (in words) (serum cholesterol) | effect on bone loss / tibia density (in words) (tibia) | eosinophil infiltration into the uterus (in words) (eosinophil peroxidase; 4 days, by eosinophil peroxidase activity) | effect on uterine weight (in words) (uterus; OVX rats, oral, 4 days, EE2 at 0.1 mg/Kg/day) |
| --- | --- | --- | --- | --- | --- | --- | --- | --- | --- | --- | --- |
| CC(C#N)Oc1ccc(C(=O)c2c(-c3ccc(O)cc3)sc3cc(O)ccc23)cc1 (stereo not shown) [Compound 16] | 0.02 | 2.3 | 3.9 | 0.7 | 27.4 | 99.2 |  |  |  |  |  |
| O=C(NCCOc1ccc(C(=O)c2c(-c3ccc(O)cc3)sc3cc(O)ccc23)cc1)c1ccccc1 [Compound 18] | 500 | 3.2 | 3.6 | 16.1 | 25.7 | 12.6 | 3.6 |  |  |  |  |
| CC(=O)N(CCOc1ccc(C(=O)c2c(-c3ccc(O)cc3)sc3cc(O)ccc23)cc1)C1CCCCC1 [Compound 19] | 0.1 | 5.4 | 3.7 | 7 | -25.5 | 47 | 29.3 |  |  |  |  |
| O=C(c1ccc(OCCNC(=O)C2CCCCC2)cc1)c1c(-c2ccc(O)cc2)sc2cc(O)ccc12 [Compound 21] |  | 3.1 | 2.6 | -5.5 | -11.5 | 8.6 | 2.4 |  |  |  |  |
| CC(=O)NCCOc1ccc(C(=O)c2c(-c3ccc(O)cc3)sc3cc(O)ccc23)cc1 [Compound 26] |  | 1.3 | 0.7 | -17.5 | -28.8 | 25.8 |  |  |  |  |  |
| C#C[C@]1(O)CC[C@H]2[C@@H]3CCc4cc(O)ccc4[C@H]3CC[C@@]21C [ethynyl estradiol, 17α-Ethynyl estradiol, reference compound] |  | 120.0 |  | 235 |  |  |  | caused a decrease in serum cholesterol | prevented this loss | caused a substantial, expected increase in eosinophil infiltration | substantially greater than the uterine weight of ovariectomized test animals |

Second part, led by results:

| IC50 [1] [nM] | Structure (SMILES) | Uterine EPO (Vmax) (eosinophil peroxidase; 0.1 mg/kg) | Uterine EPO (Vmax) (eosinophil peroxidase; 1 mg/kg) | change in vivo at 0.1 mg/kg (uterus) [%] | change in vivo at 1 mg/kg (uterus) [%] | change in vivo at 10 mg/kg (uterus) [%] | Uterine EPO (Vmax) (eosinophil peroxidase; 10 mg/kg) | effect on serum cholesterol (in words) (serum cholesterol) | effect on bone loss / tibia density (in words) (tibia) | eosinophil infiltration into the uterus (in words) (eosinophil peroxidase; 4 days, by eosinophil peroxidase activity) | effect on uterine weight (in words) (uterus; OVX rats, oral, 4 days, EE2 at 0.1 mg/Kg/day) |
| --- | --- | --- | --- | --- | --- | --- | --- | --- | --- | --- | --- |
| 0.1 | O=C(NCCOc1ccc(C(=O)c2c(-c3ccc(O)cc3)sc3cc(O)ccc23)cc1)NC1CCCCC1 [Compound 20] | 3.0 | 2.5 | -29.9 | -27.4 | -32.7 | 2.9 |  |  |  |  |
| 0.01 | CC(C)(C)C(=O)N1CCCCC1COc1ccc(C(=O)c2c(-c3ccc(O)cc3)sc3cc(O)ccc23)cc1 (stereo not shown) [Compound 22] | 3.5 | 20.0 | 1.9 | 19.6 | 46.9 | 69.5 |  |  |  |  |
| 4 | CC(C)(C)C(=O)N1CCC(Oc2ccc(C(=O)c3c(-c4ccc(O)cc4)sc4cc(O)ccc34)cc2)CC1 [Compound 23] | 1.6 | 3.8 | -4.3 | 0.8 | 22.3 | 6.7 |  |  |  |  |
